Source: publication PMC11212260, “Next-generation neuropeptide Y receptor small-molecule agonists inhibit mosquito-biting behavior” (Parasites & Vectors, 2024)
Values joined by “and” are separate entries in the source; they are usually repeats but may differ in a detail not shown here. Equal entries are not always repeated. Where two headings read alike, the source gives them in different places. Where a SMILES comes first, the peptide text is derived from it.

What was measured:
[1] = biological target: Ae. aegypti NPYLR7 (Aedes aegypti, UniProt U5N1H5); experiment: In vitro calcium (GCaMP6s) FLIPR assay in HEK293T cells transfected with NPYLR7; assay type: cell-based; conditions: for activation at 100 µM: single replicate of the dose-response curve; for RFU: assay date 1/11/20 plate 1, duplicate wells, listed as FMFR3a
Protocol: The in vitro screening assay was adapted from, and carried out at HD Biosciences (HDB, Shanghai) as follows: HEK293T (Thermo Fisher Scientific) cells were grown in Dulbecco’s modified Eagle medium (DMEM) (high glucose, with glutamine), 10% fetal bovine serum, 1% penicillin–streptomycin (Pen/Strep), seeded in a 75 cm^2 flask, and incubated at 37 °C and 5% CO2. Cells were transiently transfected with 1 μg of each plasmid expressing GCaMP6s (Addgene […]) (Chen et al., 2013), mouse Gqα15 (Addgene #40753) (Offermanns and Simon, 1995) and Ae. aegypti NPYLR7 (Addgene #52392) (Duvall et al. 2019) using Lipofectamine 2000 (Invitrogen) in 4 ml of Opti-MEM (Invitrogen). This mixture was added to a plate after 20 min and incubated for 6–8 h. Cells were then trypsinized, resuspended in phenol-free media, and plated in a 384-well plate (Greiner Bio-One) at a density of 20,000 cells per 40 μl, and incubated overnight (37 °C, 5% CO2). Cells were imaged directly in phenol-free media. Plates were loaded into a Molecular Devices fluorescence imaging plate reader (FLIPR) with an excitation wavelength of 470–495 nm and an emitted wavelength of 515–575 nm. Plates were imaged every second for 5 min. After 30 s of baseline fluorescence recording, 10 μl of the test compound in reading buffer [Hank’s Balanced Salt Solution (Gibco) + 20 mM HEPES (Sigma-Aldrich)] was added. Concentrations tested ranged from 0 to 100 μM. Data were collected in raw fluorescence units (RFU).
Each test plate included replicates of 10 μM FMRFa3 (H‐Ala‐Gly‐Gln‐Gly‐Phe‐Met‐Arg‐Phe‐NH2), an Ae. aegypti neuropeptide agonist of NPYLR7 used to calculate the hundred percent effect (HPE). The zero percent effect (ZPE) control was calculated as a response to buffer alone. The Z′ factor was calculated for each plate by Z^′=1-3σHPE+3σZPE/|μHPE-μZPE| . Plates with Z′ < 0.5 were excluded from analysis. Raw fluorescence units (RFU) were converted to percent effect relative to the average of the ZPE and HPE. Percent effect = (sample luminescence − average ZPE)/(average HPE − average ZPE)×100. […] Each replicate was plotted as percent effect versus log[concentration], and replicates with maximal responses between 20 and 250% were used for EC50 calculations. Relative EC50 was calculated using an [Agonist] versus response–variable slope four-parameter model where Y=Bottom+(X^Hillslope)∗(Top-Bottom)/(X^HillSlope+EC50^HillSlope) . For compounds with multiple replicates, the relative EC50 of each replicate was averaged.

[2] = system: Aedes aegypti (Orlando strain) females; experiment: Host-seeking screening assay (miniport olfactometer); assay type: in vivo; conditions: fed 1 μM in saline, tested 48 h post-meal; for Attraction (relative to saline): per-compound value of Fig. 3C; for Host-seeking relative to saline (test compound % host-seeking/average matched saline % host-seeking): individual replicates
Protocol: Groups of 60–150 females were placed in bucket cages with a diameter of 21.6 cm and height of 16.5 cm (VWR) and fasted with access to water for 24 h prior to feeding. Meals were delivered to females via Glytube membrane feeders as described previously. Meals consisted of 1.5 ml sheep blood (HemoStat Laboratories), saline (400 mM NaHCO3 + dih2O), or saline and test compound. Lyophilized compounds were stored at room temperature until use. High-concentration stocks (30 mM in 100% dimethyl sulfoxide [DMSO]) (Sigma-Aldrich) were stored at −20 °C and diluted in saline immediately prior to feeding. Once prepared, meals and glycerol heating elements were warmed in a 42 °C water bath for 15 min to provide warmth to attract mosquitos to feed. ATP (1 mM final concentration) and test compounds (1 μM final concentration) were added prior to placing the meal on top of the mesh on the cage containing female mosquitos. Females were allowed 15–20 min to feed to repletion. Abdominal engorgement was scored by eye and confirmed by weighing females to ensure full feeding (Data S1). […] Females were returned to their original cage with a diH2O wick for 48 h prior to behavioral testing. The lethality of each compound was measured by counting the number of dead females in each cage 24 h post-meal.
Miniport olfactometers were fabricated in-house as described previously. Information regarding design, construction, and use can be found at https://github.com/VosshallLab/Miniport-Construction. Miniport canisters consisted of a 6″ × 3″ × 3″ acrylic tube with a mesh screen to allow for air flow. Groups of 10–20 females were loaded into canisters 24 h post-meal. Females were left in canisters overnight to acclimate with two cotton balls soaked in diH20 to prevent desiccation. Behavior trials began 48 h post-meal. Canisters were randomly assigned to attraction traps 1–4 and given 5 min to acclimate. The stimulus end of the trap was connected to a flowmeter that supplied 5% CO2 at a rate of 30 ml/min. Thirty seconds of CO2 flow was supplied to activate females prior to opening the sliding door. Once opened, the sliding door gave females access to the attraction trap baited with a human-scented nylon stocking previously worn by the same experimenter for 8–10 h to collect body odor and stored in a plastic bag at −20 °C until use. After 5 min, the sliding door was closed and attraction was scored as mosquitoes in the attraction trap/total number of mosquitoes. For each experiment data were normalized to the matched average saline attraction from the same experiment (% attracted/average saline attraction). Any dead mosquitoes were excluded from the analysis. Non-fed females and blood-fed females served as environmental control groups while the saline-fed females served as the vehicle control each day. If non-fed or saline-fed females were less than 50% attracted or if blood-fed females were more than 20% attracted behavioral trials were halted and all data from that experimental day were discarded.

[3] = EC50 of the individual assay date/plate (assay date), read-out: EC50
[4] = Figure 1E Summary, second list (n = 48), read-out: Reported Metric (Summary list)
[5] = relative EC50, percent effect relative to 10 μM FMRFa3, read-out: EC50
[6] = sheet Figure 3C, unit inferred, read-out: EC50
[7] = summary EC50 per compound (mean over assay dates), the unit is taken from the neighbouring EC50 (uM) column, read-out: Reported Metric
[8] = HEK-293T, 100 uM, normalised response
[9] = HEK-293T, 11.1111 uM, single replicate, normalised response
[10] = Figure 1E Summary, third list (n = 39), read-out: Reported Metric (Summary list)
[11] = HEK-293T, single replicate, normalised response
[12] = HEK-293T, 33.3333 uM, single replicate, normalised response

Sequence of Ae. aegypti NPYLR7 (U5N1H5 entry or part of it): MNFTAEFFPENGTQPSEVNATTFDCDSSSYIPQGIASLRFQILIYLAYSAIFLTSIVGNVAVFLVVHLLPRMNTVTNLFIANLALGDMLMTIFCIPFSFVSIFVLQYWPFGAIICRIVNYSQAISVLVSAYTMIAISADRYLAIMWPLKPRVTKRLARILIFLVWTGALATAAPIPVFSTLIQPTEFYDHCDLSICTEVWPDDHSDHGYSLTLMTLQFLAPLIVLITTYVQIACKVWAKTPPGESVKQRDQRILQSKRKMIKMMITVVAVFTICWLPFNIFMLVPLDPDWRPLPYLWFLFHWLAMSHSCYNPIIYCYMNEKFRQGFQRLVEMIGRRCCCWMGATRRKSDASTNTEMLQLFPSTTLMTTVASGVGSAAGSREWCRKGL

SMILES	EC50 [1, 3] [µM]	EC50 [1, 4] [µM]	EC50 [1, 5] [µM]	EC50 [1, 6] [µM]	EC50 [1, 7] [µM]	Attraction (relative to saline) [2]	activation at 100 µM [1, 8] [%]	activation at 11.1111 µM [1, 9] [%]	activation at 33.3333 µM [1, 12] [%]	also measured
Cc1nc(NC(=N)N)nc2cc(OCc3cnccn3)ccc12 [TDI-014181]	6.21	6.21	6.21	6.21	6.21	0.975	–	–	–	–
Cc1nc(NC(=N)N)nc2cc(OCC3CCCOC3)ccc12 (stereo not drawn) [TDI-014167]	7.37	7.37	7.37	7.37	7.37	0.975	66.1	–	–	Host-seeking relative to saline (test compound % host-seeking/average matched saline % host-seeking) ([2]; listed as TDI-04167): 0.97
CCOc1ccc2c(C)nc(NC(=N)N)nc2c1 [TDI-014177]	5.6	5.6	5.6	5.6	5.6	0.94	49.6	–	–	Host-seeking relative to saline (test compound % host-seeking/average matched saline % host-seeking) ([2]; listed as TDI-04177): 1.17 and 0.9
Cc1nc(NC(=N)N)nc2cc(OCC3CCCCO3)ccc12 (stereo not drawn) [TDI-014192]	5.76	5.76	5.76	5.76	5.76	1.035	67.4	55.1	–	–
CNc1nc(NC(=N)N)nc2cc(OCc3ccc(OC)cc3)ccc12 [TDI-014190]	0.0181	–	0.0181	0.0181	0.0181	0.805	91.9	69.9	92.1	EC50 [1, 10]: 0.0181 µM; activation at 0.1372 µM [1, 11]: 46.8%; activation at 1.2346 µM ([1]; HEK-293T, 1.2346 uM, single replicate, normalised response): 77.5%
Cc1nc(NC(=N)N)nc2cc(OCc3ccc(OC(F)(F)F)cc3)ccc12 [TDI-014172]	19.7	19.7	19.7	19.7	19.7	0.975	–	57	89.6	Host-seeking relative to saline (test compound % host-seeking/average matched saline % host-seeking) ([2]; listed as TDI-04172): 1 and 1.1
Cc1nc(NC(=N)N)nc2cc(OCc3cccnn3)ccc12 [TDI-014179]	39.3	39.3	39.3	39.3	39.3	0.865	–	–	23.1	–
CSCC[C@H](NC(=O)[C@H](Cc1ccccc1)NC(=O)CNC(=O)[C@H](CCC(N)=O)NC(=O)CNC(=O)[C@H](C)N)C(=O)N[C@@H](CCCNC(=N)N)C(=O)N[C@@H](Cc1ccccc1)C(N)=O [FMRF3a] (H-AGQGFMRF-NH2)	–	–	–	–	–	–	–	–	–	response at 0.0017(uM) ([1]; 0.0017 uM, single replicate, normalised response): 2.545; response at 0.0051(uM) ([1]; 0.0051 uM, single replicate, normalised response): -0.01361; EC50 ([1]; EC50 (uM), EC50 of the individual assay date/plate (assay date)): 2.4 µM and 3.76 µM and 1.51 µM and 8.78 µM and 4.23 µM and 2.6 µM and 8.21 µM and 1.15 µM and 4.22 µM and 4.26 µM; EC50 ([1]; Reported Metric, summary EC50 per compound (mean over assay dates), the unit is taken from the neighbouring EC50 (uM) column): 4.11 µM
COc1ccc(COc2ccc3c(C)nc(NC(=N)N)nc3c2)cc1OC [TDI-014180]	0.00192	–	0.00192	0.00192	0.00192	0.93	63.8	74	81.8	EC50 [1, 10]: 0.00192 µM; activation at 0.0152 µM ([1]; HEK-293T, 0.0152 uM, single replicate, normalised response): 42.4%; activation at 0.0457 µM ([1]; HEK-293T, 0.0457 uM, single replicate, normalised response): 59.4%; activation at 0.1372 µM [1, 11]: 67.9%; activation at 0.4115 µM ([1]; HEK-293T, 0.4115 uM, single replicate, normalised response): 85.1%; activation at 3.7037 µM ([1]; HEK-293T, 3.7037 uM, single replicate, normalised response): 96.7%; Host-seeking relative to saline (test compound % host-seeking/average matched saline % host-seeking) ([2]; listed as TDI-04180): 0.93
CSCC[C@H](NC(=O)[C@H](Cc1ccccc1)NC(=O)CNC(=O)[C@H](CCC(N)=O)NC(=O)CNC(=O)[C@H](C)N)C(=O)N[C@@H](CCCNC(=N)N)C(=O)N[C@@H](Cc1ccccc1)C(N)=O [FMRFa3, H‐Ala‐Gly‐Gln‐Gly‐Phe‐Met‐Arg‐Phe‐NH2, reference compound] (H-AGQGFMRF-NH2)	–	–	–	–	–	–	–	–	–	RFU ([1]; 0.00169350878084303uM): 65 RFU and 68 RFU; RFU ([1]; 0.00508052634252909uM): 68 RFU and 63 RFU; RFU ([1]; 0.0152415790275873uM): 60 RFU and 54 RFU; RFU ([1]; 0.0457247370827618uM): 68 RFU and 57 RFU; RFU ([1]; 0.137174211248285uM): 60 RFU and 61 RFU; RFU ([1]; 0.411522633744856uM): 69 RFU and 63 RFU; RFU ([1]; 1.23456790123457uM): 164 RFU and 112 RFU; RFU ([1]; 3.7037037037037uM): 199 RFU and 204 RFU; RFU ([1]; 11.1111111111111 uM): 247 RFU and 275 RFU; RFU ([1]; 33.333333 uM): 320 RFU and 317 RFU; RFU ([1]; 100 uM): 354 RFU and 310 RFU
Cc1nc(NC(=N)N)nc2cc(OC(F)(F)F)ccc12 [TDI-012613]	–	–	3.38	–	–	–	–	–	–	EC50 [1, 10]: 3.38 µM; EC50 ([1]; Figure 1E, EC50 of the single assay date/plate, read-out: EC50): 5.42 µM and 1.34 µM; EC50 ([1]; Figure 1E, metric reported per compound, repeated on every replicate line, read-out: Reported Metric (EC50)): 3.38 µM; activation at 11.1111 µM ([1]; HEK-293T, compound 11.1111 uM, single replicate well, read-out: response at 11.1111): 43.1%; activation at 33.3333 µM ([1]; HEK-293T, compound 33.3333 uM, single replicate well, read-out: response at 33.3333): 69.7%
